Measurements taken from PubChem BioAssay (NCI).
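Five compound concentrations were applied to cells in 96-well plates for 48 hours; endpoints were derived by simple linear interpolation of the resulting dose-response curve. TGI denotes the concentration required for complete inhibition of growth.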

Each molecule was assayed on HCC-2998 colon (assay: NCI tumour cell line growth inhibition, 48 h).
Work on N/C(=N\Nc1ccc(C(=O)O)cc1)c1cnccn1 yielded a TGI greater than 100 µM. CCN(CC)c1ccc(/C=C/C2=NN(c3cccc(S(=O)(=O)O)c3)C3(C2)SCC(=O)N3c2nc3ccccc3s2)cc1 (configuration not stated) gave a TGI greater than 100 µM. Work on CC(C)NC(=O)OCc1c(COC(=O)NC(C)C)n(C)c2c1ccc1ccsc12 yielded a TGI of 28.6 µM. Work on COC(=O)C12C3C4C1C1C2C3C41C(=O)NC(C)(C)CC(=O)O (configuration not stated) yielded a TGI greater than 100 µM.

What follows are molecules tested on MDA-MB-231 breast (assay: NCI tumour cell line growth inhibition, 48 h).
N/C(=N\Nc1ccc(C(=O)O)cc1)c1cnccn1 showed a TGI greater than 100 µM. In the case of CCN(CC)c1ccc(/C=C/C2=NN(c3cccc(S(=O)(=O)O)c3)C3(C2)SCC(=O)N3c2nc3ccccc3s2)cc1 (configuration not stated), the TGI is reported as greater than 100 µM. Molecule CC(C)NC(=O)OCc1c(COC(=O)NC(C)C)n(C)c2c1ccc1ccsc12 has a TGI of 38.4 µM. With COC(=O)C12C3C4C1C1C2C3C41C(=O)NC(C)(C)CC(=O)O (configuration not stated) the TGI was greater than 100 µM.

These molecules were tested on SNB-19 CNS (assay: NCI tumour cell line growth inhibition, 48 h).
With N/C(=N\Nc1ccc(C(=O)O)cc1)c1cnccn1 the TGI was greater than 100 µM. In the case of CCN(CC)c1ccc(/C=C/C2=NN(c3cccc(S(=O)(=O)O)c3)C3(C2)SCC(=O)N3c2nc3ccccc3s2)cc1 (configuration not stated), the TGI is reported as greater than 100 µM. Molecule CC(C)NC(=O)OCc1c(COC(=O)NC(C)C)n(C)c2c1ccc1ccsc12 has a TGI of 52.2 µM. With COC(=O)C12C3C4C1C1C2C3C41C(=O)NC(C)(C)CC(=O)O (configuration not stated) the TGI was greater than 100 µM.

What follows are molecules tested on HCT-116 colon (assay: NCI tumour cell line growth inhibition, 48 h).
Molecule N/C(=N\Nc1ccc(C(=O)O)cc1)c1cnccn1 has a TGI greater than 100 µM. CCN(CC)c1ccc(/C=C/C2=NN(c3cccc(S(=O)(=O)O)c3)C3(C2)SCC(=O)N3c2nc3ccccc3s2)cc1 (configuration not stated) showed a TGI greater than 100 µM. Molecule CC(C)NC(=O)OCc1c(COC(=O)NC(C)C)n(C)c2c1ccc1ccsc12 has a TGI of 31.8 µM. COC(=O)C12C3C4C1C1C2C3C41C(=O)NC(C)(C)CC(=O)O (configuration not stated) showed a TGI greater than 100 µM.

Each molecule was assayed on K-562 leukemia (assay: NCI tumour cell line growth inhibition, 48 h).
N/C(=N\Nc1ccc(C(=O)O)cc1)c1cnccn1 gave a TGI greater than 100 µM. CCN(CC)c1ccc(/C=C/C2=NN(c3cccc(S(=O)(=O)O)c3)C3(C2)SCC(=O)N3c2nc3ccccc3s2)cc1 (configuration not stated) gave a TGI greater than 100 µM. Work on CC(C)NC(=O)OCc1c(COC(=O)NC(C)C)n(C)c2c1ccc1ccsc12 yielded a TGI of 54.8 µM.

Each molecule was assayed on OVCAR-3 ovarian (assay: NCI tumour cell line growth inhibition, 48 h).
N/C(=N\Nc1ccc(C(=O)O)cc1)c1cnccn1 was tested, and the TGI was greater than 100 µM. CC(C)NC(=O)OCc1c(COC(=O)NC(C)C)n(C)c2c1ccc1ccsc12 was tested, and the TGI was 40 µM. In the case of COC(=O)C12C3C4C1C1C2C3C41C(=O)NC(C)(C)CC(=O)O (configuration not stated), the TGI is reported as greater than 100 µM.

These molecules were tested on SN12C renal (assay: NCI tumour cell line growth inhibition, 48 h).
In the case of N/C(=N\Nc1ccc(C(=O)O)cc1)c1cnccn1, the TGI is reported as greater than 100 µM. Molecule CCN(CC)c1ccc(/C=C/C2=NN(c3cccc(S(=O)(=O)O)c3)C3(C2)SCC(=O)N3c2nc3ccccc3s2)cc1 (configuration not stated) has a TGI greater than 100 µM. CC(C)NC(=O)OCc1c(COC(=O)NC(C)C)n(C)c2c1ccc1ccsc12 was tested, and the TGI was 35.2 µM. Work on COC(=O)C12C3C4C1C1C2C3C41C(=O)NC(C)(C)CC(=O)O (configuration not stated) yielded a TGI greater than 100 µM.

Each molecule was assayed on IGROV1 ovarian (assay: NCI tumour cell line growth inhibition, 48 h).
With N/C(=N\Nc1ccc(C(=O)O)cc1)c1cnccn1 the TGI was greater than 100 µM. CCN(CC)c1ccc(/C=C/C2=NN(c3cccc(S(=O)(=O)O)c3)C3(C2)SCC(=O)N3c2nc3ccccc3s2)cc1 (configuration not stated) gave a TGI greater than 100 µM. Work on CC(C)NC(=O)OCc1c(COC(=O)NC(C)C)n(C)c2c1ccc1ccsc12 yielded a TGI of 53.3 µM. For COC(=O)C12C3C4C1C1C2C3C41C(=O)NC(C)(C)CC(=O)O (configuration not stated), the TGI was greater than 100 µM.

These molecules were tested on HS 578T breast (assay: NCI tumour cell line growth inhibition, 48 h).
With N/C(=N\Nc1ccc(C(=O)O)cc1)c1cnccn1 the TGI was greater than 100 µM. Work on CCN(CC)c1ccc(/C=C/C2=NN(c3cccc(S(=O)(=O)O)c3)C3(C2)SCC(=O)N3c2nc3ccccc3s2)cc1 (configuration not stated) yielded a TGI greater than 100 µM. CC(C)NC(=O)OCc1c(COC(=O)NC(C)C)n(C)c2c1ccc1ccsc12 showed a TGI of 48.5 µM. For COC(=O)C12C3C4C1C1C2C3C41C(=O)NC(C)(C)CC(=O)O (configuration not stated), the TGI was greater than 100 µM.

What follows are molecules tested on UO-31 renal (assay: NCI tumour cell line growth inhibition, 48 h).
Molecule N/C(=N\Nc1ccc(C(=O)O)cc1)c1cnccn1 has a TGI greater than 100 µM. CCN(CC)c1ccc(/C=C/C2=NN(c3cccc(S(=O)(=O)O)c3)C3(C2)SCC(=O)N3c2nc3ccccc3s2)cc1 (configuration not stated) was tested, and the TGI was greater than 100 µM. In the case of CC(C)NC(=O)OCc1c(COC(=O)NC(C)C)n(C)c2c1ccc1ccsc12, the TGI is reported as 26.6 µM. Work on COC(=O)C12C3C4C1C1C2C3C41C(=O)NC(C)(C)CC(=O)O (configuration not stated) yielded a TGI greater than 100 µM.

Each molecule was assayed on NCI-H23 lung (assay: NCI tumour cell line growth inhibition, 48 h).
Work on N/C(=N\Nc1ccc(C(=O)O)cc1)c1cnccn1 yielded a TGI greater than 100 µM. For CCN(CC)c1ccc(/C=C/C2=NN(c3cccc(S(=O)(=O)O)c3)C3(C2)SCC(=O)N3c2nc3ccccc3s2)cc1 (configuration not stated), the TGI was greater than 100 µM. CC(C)NC(=O)OCc1c(COC(=O)NC(C)C)n(C)c2c1ccc1ccsc12 showed a TGI of 21.8 µM. In the case of COC(=O)C12C3C4C1C1C2C3C41C(=O)NC(C)(C)CC(=O)O (configuration not stated), the TGI is reported as greater than 100 µM.

The molecules below were run on HCT-15 colon (assay: NCI tumour cell line growth inhibition, 48 h).
N/C(=N\Nc1ccc(C(=O)O)cc1)c1cnccn1 showed a TGI greater than 100 µM. Molecule CCN(CC)c1ccc(/C=C/C2=NN(c3cccc(S(=O)(=O)O)c3)C3(C2)SCC(=O)N3c2nc3ccccc3s2)cc1 (configuration not stated) has a TGI greater than 100 µM. With CC(C)NC(=O)OCc1c(COC(=O)NC(C)C)n(C)c2c1ccc1ccsc12 the TGI was 28.1 µM. COC(=O)C12C3C4C1C1C2C3C41C(=O)NC(C)(C)CC(=O)O (configuration not stated) gave a TGI greater than 100 µM.

Each molecule was assayed on HOP-62 NSCLC (assay: NCI tumour cell line growth inhibition, 48 h).
For N/C(=N\Nc1ccc(C(=O)O)cc1)c1cnccn1, the TGI was greater than 100 µM. Molecule CC(C)NC(=O)OCc1c(COC(=O)NC(C)C)n(C)c2c1ccc1ccsc12 has a TGI of 55.9 µM. Molecule COC(=O)C12C3C4C1C1C2C3C41C(=O)NC(C)(C)CC(=O)O (configuration not stated) has a TGI greater than 100 µM.

These molecules were tested on SW-620 colon (assay: NCI tumour cell line growth inhibition, 48 h).
Work on N/C(=N\Nc1ccc(C(=O)O)cc1)c1cnccn1 yielded a TGI greater than 100 µM. Molecule CCN(CC)c1ccc(/C=C/C2=NN(c3cccc(S(=O)(=O)O)c3)C3(C2)SCC(=O)N3c2nc3ccccc3s2)cc1 (configuration not stated) has a TGI greater than 100 µM. With CC(C)NC(=O)OCc1c(COC(=O)NC(C)C)n(C)c2c1ccc1ccsc12 the TGI was greater than 45 µM. Work on COC(=O)C12C3C4C1C1C2C3C41C(=O)NC(C)(C)CC(=O)O (configuration not stated) yielded a TGI greater than 100 µM.

Each molecule was assayed on COLO 205 colon (assay: NCI tumour cell line growth inhibition, 48 h).
With N/C(=N\Nc1ccc(C(=O)O)cc1)c1cnccn1 the TGI was greater than 100 µM. With CCN(CC)c1ccc(/C=C/C2=NN(c3cccc(S(=O)(=O)O)c3)C3(C2)SCC(=O)N3c2nc3ccccc3s2)cc1 (configuration not stated) the TGI was 81.1 µM. In the case of CC(C)NC(=O)OCc1c(COC(=O)NC(C)C)n(C)c2c1ccc1ccsc12, the TGI is reported as 26 µM. Molecule COC(=O)C12C3C4C1C1C2C3C41C(=O)NC(C)(C)CC(=O)O (configuration not stated) has a TGI greater than 100 µM.
